Assay results taken from US20220098159A1, “CARBAMATE DERIVATIVES AND USES THEREOF” (Nodthera Limited, priority 2019, published 2022).

These compounds were tested on IL-1β release upon NLRP3 activation in peripheral blood mononuclear cells (PBMC) (assay: PBMC IC50 determination assay (inhibition of IL-1β release upon NLRP3 activation)). Settings: Homo sapiens, PBMC, read-out: Average PBMC IC50 (μM).
Type: cell-based
Experimental: The compounds of the present disclosure were tested for their inhibitory activity against IL-1β release upon NLRP3 activation in peripheral blood mononuclear cells (PBMC).
Protocol A. PBMC were isolated from buffy coats by density gradient centrifugation on Histopaque-1077 (Sigma, cat no. 10771). Isolated cells were seeded into the wells of a 96-well plate and incubated for 3 h with lipopolysaccharide (LPS). Following medium exchange, the compounds of the present disclosure were added (a single compound per well) and the cells were incubated for 30 min. Next, the cells were stimulated either with ATP (5 mM) or nigericin (10 μM) for 1 h and the cell culture media from the wells were collected for further analysis.
The release of IL-1β into the media was determined by a quantitative detection of IL-1β in the media using an IL-1β enzyme-linked immunosorbent assay (ELISA) Ready-SET-Go!, eBioscience cat. No. 88-7261-88. Briefly, in a first step, high affinity binding plates (Corning, Costar 9018 or NUNC Maxisorp Cat No. 44-2404) were coated overnight at 4° C. with specific capture antibody included in the kit (anti-human IL-1β ref. 14-7018-68). Subsequently, plates were blocked with blocking buffer for 1 h at room temperature (rt) and after washing with a buffer (PBS with 0.05% Tween-20) incubated with protein standard and culture media. After 2 h of incubation at rt, plates were washed and incubated with biotinylated detection antibody included in the kit (anti-human IL-1β Biotin ref. 33-7110-68) for 1 h at rt. Plates were washed and incubated with HRP-streptavidin for 30 min at rt and washed again. The signal was developed after addition of 3,3′,5,5′-tetramethylbenzidine-peroxidase (TMB) until colour appeared and the reaction was stopped by 2 M H2SO4. A microplate spectrophotometer (BioTek) was used to detect signals with 450 nm. The detection range of IL-1β ELISA was 2-150 ng/ml.
Protocol B. PBMC were isolated from buffy coats by density gradient centrifugation on Histopaque-1077 (Sigma, cat no. 10771). Isolated cells were seeded into the wells (280,000 cells/well) of a 96-well plate and incubated for 3 h with lipopolysaccharide (LPS, 1 μg/ml diluted 1000× from a 1 mg/ml stock solution). The compounds of the present disclosure were added (a single compound per well) and the cells were incubated for 30 min. Next, the cells were stimulated with ATP (5 mM final concentration diluted 20× from a 100 mM stock solution) for 1 h and the cell culture media from the wells were collected for further analysis.
The release of IL-1β into the media was determined by quantitative detection of IL-1β in the media using HTRF®, CisBio cat. No. 62HIL1BPEH. Briefly, cell culture supernatant were dispensed directly into the assay plate containing antibodies labelled with the HTRF® donor and acceptor. A microplate spectrophotometer (BMG) was used to detect signals at 655 nm and 620 nm. The detection range of IL-1β HTRF® was 39-6500 pg/ml.
For `CC(C)OC(=O)[C@@H](Cn1cncn1)OC(=O)N[C@H](C)c1ccc(C(F)(F)F)nc1` [Compound 15, Propan-2-yl (2R)-3-(1H-1,2,4-triazol-1-yl)-2-({[(1R)-1-[6-(trifluoromethyl)pyridin-3-yl]ethyl]carbamoyl}oxy)propanoate], the IC50 was 10 to 50 µM. `CCCC(NC(=O)OC(Cc1ncccn1)C(=O)OC(C)C)c1ccc(C(F)(F)F)cc1` (centres unmarked) [Compound 21, Propan-2-yl 3-(pyrimidin-2-yl)-2-[({1-[4-(trifluoromethyl)phenyl]butyl}carbamoyl)oxy]propanoate] showed an IC50 of 1 to 3 µM. In the case of `CC(C)OC(=O)[C@@H](Cn1cncn1)OC(=O)N[C@@H](C)c1ccc(C2CC2)cc1` [Compound 10, Propan-2-yl (2R)-2-({[(1S)-1-(4-cyclopropylphenyl)ethyl]carbamoyl}oxy)-3-(1H-1,2,4-triazol-1-yl)propanoate], the IC50 is reported as < 1 µM. `CC(C)OC(=O)C(Cc1ncccn1)OC(=O)N[C@@H](C)c1ccc(Cl)c(Cl)c1` (stereo partly drawn) [Compound 2, Propan-2-yl 2-({[(1S)-1-(3,4-dichlorophenyl)ethyl]carbamoyl}oxy)-3-(pyrimidin-2-yl)propanoate] gave an IC50 of 10 to 50 µM. `CC(C)OC(=O)[C@@H](Cn1cncn1)OC(=O)N[C@@H](C)c1ccc(C(C)C)cc1` [Compound 13, Propan-2-yl (2R)-2-({[(1S)-1-[4-(propan-2-yl)phenyl]ethyl]carbamoyl}oxy)-3-(1H-1,2,4-triazol-1-yl)propanoate] was tested, and the IC50 was < 1 µM. For `CCc1ccc([C@H](C)NC(=O)O[C@H](Cn2cncn2)C(=O)OC(C)C)cc1` [Compound 12, Propan-2-yl (2R)-2-({[(1S)-1-(4-ethylphenyl)ethyl]carbamoyl}oxy)-3-(1H-1,2,4-triazol-1-yl)propanoate], the IC50 was < 1 µM. Compound `CC(C)OC(=O)[C@@H](Cn1cncn1)OC(=O)N[C@@H](C)c1ccc(C(F)(F)F)nc1` [Compound 14, Propan-2-yl (2R)-3-(1H-1,2,4-triazol-1-yl)-2-({[(1S)-1-[6-(trifluoromethyl)pyridin-3-yl]ethyl]carbamoyl}oxy)propanoate] has an IC50 of 10 to 50 µM.

Same assay, conditions: Homo sapiens; PBMC from buffy coats, LPS 3 h, compound 30 min, then ATP (5 mM) or nigericin (10 μM) 1 h; IL-1β in media by ELISA (Protocol A) or HTRF (Protocol B); read-out: Average PBMC IC50
Compound `CC(C)OC(=O)[C@@H](Cc1ncccn1)OC(=O)N(C)[C@@H](C)c1ccc(C(F)(F)F)cc1Cl` [Compound 27, Propan-2-yl (2R)-2-({[(1S)-1-[2-chloro-4-(trifluoromethyl)phenyl]ethyl](methyl)carbamoyl}oxy)-3-(pyrimidin-2-yl)propanoate] has an IC50 of 1 to 3 µM. `CC(C)OC(=O)[C@@H](Cn1cncn1)OC(=O)NC(C)c1ncc(C(F)(F)F)cn1` (stereo partly drawn) [Compound 18, Propan-2-yl (2R)-3-(1H-1,2,4-triazol-1-yl)-2-[({1-[5-(trifluoromethyl)pyrimidin-2-yl]ethyl}carbamoyl)oxy]propanoate] was tested, and the IC50 was 3 to 10 µM. `CC(C)OC(=O)C(Cc1ncccn1)OC(=O)N[C@@H](C)c1ccc(Cl)cc1` (stereo partly drawn) [Compound 3, Propan-2-yl 2-({[(1S)-1-(4-chlorophenyl)ethyl]carbamoyl}oxy)-3-(pyrimidin-2-yl)propanoate] was tested, and the IC50 was < 1 µM. Compound `CC(C)OC(=O)C(Cc1ncccn1)OC(=O)N[C@@H](C)c1ccc(C#N)cc1` (stereo partly drawn) [Compound 4, Propan-2-yl 2-({[(1S)-1-(4-cyanophenyl)ethyl]carbamoyl}oxy)-3-(pyrimidin-2-yl)propanoate] has an IC50 of 1 to 3 µM. For `CC(C)OC(=O)[C@@H](Cc1ncccn1)OC(=O)N[C@@H](C)c1ccc(C(F)(F)F)cc1` [Compound 23, Propan-2-yl (2R)-3-(pyrimidin-2-yl)-2-({[(1S)-1-[4-(trifluoromethyl)phenyl]ethyl]carbamoyl}oxy)propanoate], the IC50 was < 1 µM. Compound `CCOC(=O)C(Cn1cccn1)OC(=O)N[C@@H](C)c1ccc(Cl)cc1` (stereo partly drawn) [Compound 1, Ethyl 2-({[(1S)-1-(4-chlorophenyl)ethyl]carbamoyl}oxy)-3-(1H-pyrazol-1-yl)propanoate] has an IC50 of 10 to 50 µM. For `C[C@H](NC(=O)O[C@H](Cc1ncccn1)C(=O)O)c1ccc(C(F)(F)F)cc1Cl` [Compound 26, (2R)-2-({[(1S)-1-[2-Chloro-4-(trifluoromethyl)phenyl]ethyl]carbamoyl}oxy)-3-(pyrimidin-2-yl)propanoic acid], the IC50 was 3 to 10 µM. `CC(C)OC(=O)C(Cc1ncccn1)OC(=O)NC(C)c1ccc(C(F)(F)F)cc1Cl` (centres unmarked) [Compound 16, Isopropyl 2-[1-[2-chloro-4-(trifluoromethyl)phenyl]ethylcarbamoyloxy]-3-pyrimidin-2-yl-propaneate] was tested, and the IC50 was < 1 µM. Compound `C[C@H](NC(=O)O[C@H](Cc1ncccn1)C(=O)O)c1ccc(C(F)(F)F)cc1` [Compound 24, (2R)-3-(Pyrimidin-2-yl)-2-({[(1S)-1-[4-(trifluoromethyl)phenyl]ethyl]carbamoyl}oxy)propanoic acid] has an IC50 of 3 to 10 µM. For `Cc1cc(C(F)(F)F)ccc1C(C)NC(=O)OC(Cc1ncccn1)C(=O)OC(C)C` (centres unmarked) [Compound 20, Isopropyl 2-[1-[2-methyl-4-(trifluoromethyl)phenyl]ethylcarbamoyloxy]-3-pyrimidin-2-yl-propanoate], the IC50 was < 1 µM. In the case of `CC(C)OC(=O)[C@@H](Cn1cncn1)OC(=O)N[C@@H](C)c1ccc(C(F)(F)F)c(F)c1` [Compound 9, Propan-2-yl (2R)-2-({[(1S)-1-[3-fluoro-4-(trifluoromethyl)phenyl]ethyl]carbamoyl}oxy)-3-(1H-1,2,4-triazol-1-yl)propanoate], the IC50 is reported as < 1 µM. `CC(C)OC(=O)[C@@H](Cn1cncn1)OC(=O)N[C@@H](C)c1ccc(C(F)(F)F)cc1` [Compound 11, Propan-2-yl (2R)-3-(1H-1,2,4-triazol-1-yl)-2-({[(1S)-1-[4-(trifluoromethyl)phenyl]ethyl]carbamoyl}oxy)propanoate] was tested, and the IC50 was < 1 µM. For `CC(C)OC(=O)C(Cc1ncccn1)OC(=O)N[C@@H](C)c1ccc(C(F)(F)F)cc1` (stereo partly drawn) [Compound 5, Propan-2-yl 3-(pyrimidin-2-yl)-2-({[(1S)-1-[4-(trifluoromethyl)phenyl]ethyl]carbamoyl}oxy)propanoate], the IC50 was < 1 µM. With `CC(C)OC(=O)[C@@H](Cn1cncn1)OC(=O)N[C@@H](C)c1ccc(C(C)(C)C)cc1` [Compound 6, Propan-2-yl (2R)-2-({[(1S)-1-(4-tert-butylphenyl)ethyl]carbamoyl}oxy)-3-(1H-1,2,4-triazol-1-yl)propanoate] the IC50 was < 1 µM. `CC(C)OC(=O)[C@@H](Cn1cncn1)OC(=O)N[C@@H](C)c1ccc(OCC(F)(F)F)cc1` [Compound 7, Propan-2-yl (2R)-3-(1H-1,2,4-triazol-1-yl)-2-({[(1S)-1-[4-(2,2,2-trifluoroethoxy)phenyl]ethyl]carbamoyl}oxy)propanoate] was tested, and the IC50 was < 1 µM. For `COc1cc(C(F)(F)F)ccc1C(C)NC(=O)OC(Cc1ncccn1)C(=O)OC(C)C` (centres unmarked) [Compound 19, Propan-2-yl 2-[({1-[2-methoxy-4-(trifluoromethyl)phenyl]ethyl}carbamoyl)oxy]-3-(pyrimidin-2-yl)propanoate], the IC50 was < 1 µM. In the case of `CC(C)OC(=O)[C@@H](Cc1ncccn1)OC(=O)N[C@@H](C)c1ccc(C(F)(F)F)cc1Cl` [Compound 25, Propan-2-yl (2R)-2-({[(1S)-1-[2-chloro-4-(trifluoromethyl)phenyl]ethyl]carbamoyl}oxy)-3-(pyrimidin-2-yl)propanoate], the IC50 is reported as < 1 µM. In the case of `CCc1cc(C(F)(F)F)ccc1C(C)NC(=O)OC(Cc1ncccn1)C(=O)OC(C)C` (centres unmarked) [Compound 22, Propan-2-yl 2-[({1-[2-ethyl-4-(trifluoromethyl)phenyl]ethyl}carbamoyl)oxy]-3-(pyrimidin-2-yl)propanoate], the IC50 is reported as < 1 µM. `CC(C)OC(=O)[C@@H](Cn1cncn1)OC(=O)N[C@@H](C)c1ccc(COc2ccccc2)cc1` [Compound 8, Propan-2-yl (2R)-2-({[(1S)-1-[4-(phenoxymethyl)phenyl]ethyl]carbamoyl}oxy)-3-(1H-1,2,4-triazol-1-yl)propanoate] was tested, and the IC50 was 1 to 3 µM.
